Measured values taken from patent publication US20170253607A1, “LONG-ACTING HIV PROTEASE INHIBITOR” (Shionogi & Co., Ltd., priority 2014, published 2017).

Biological target: HIV-1 PR (Human immunodeficiency virus type 1 group M subtype B, UniProt P04585)
Assay: HIV-protease inhibitory activity assay (FRET peptide substrate)
Type: biochemical
Conditions: Test Example 1
Summary of the method: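 HIV-1 PR (0.83 ng) preincubated with compounds 20 min at room temperature in 0.1 mol/L NaAc, 0.5 mol/L NaCl, 1 mmol/L EDTA, 1 mmol/L DTT, 0.05% Tween 20, pH 4.8. Cleavage of HiLyte Fluor 488/QXL 520 FRET peptide (2 μmol/L) read after 60 minutes at 485/535 nm; IC50 from four-parameter logistic fit.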

SMILES	IC50
CCCCCCCCCCCCCC(=O)Nc1ccc(CNc2ccc(CC(NC(=O)OC3COC4(C)OCCC34)C(O)CN(CC(C)C)S(=O)(=O)c3ccc(OC)cc3)cc2)c(-c2sc3c(c2C(=O)O)CC(C)(C)CC3)c1 (centres unmarked) [Compound I-763]	3.07 nM
COc1ccc(S(=O)(=O)N(CC(C)C)CC(O)C(Cc2ccc(OCc3ccccc3-c3c(C(=O)O)c4c(n3C)CCCC4)cc2)NC(=O)OC2COC3(C)OCCC23)cc1 (centres unmarked) [Compound I-50]	1.13 nM
COc1ccc(S(=O)(=O)N(CC(C)C)CC(O)C(Cc2ccc(NCc3ccc(OC)c(-c4sc5c(c4C(=O)O)CC(C)(C)CC5)c3)cc2)NC(=O)OC2COC3(C)OCCC23)cc1 (centres unmarked) [Compound I-293]	1.9 nM
COc1ccc(S(=O)(=O)N(CC(C)C)CC(O)C(Cc2ccc(N(C)Cc3nc(N4CCCC4)ccc3-c3sc4c(c3C(=O)O)CC(C)(C)CC4)cc2)NC(=O)OC2COC3(C)OCCC23)cc1 (centres unmarked) [Compound I-755]	2.69 nM
COc1ccc(S(=O)(=O)N(CC(C)C)CC(O)C(Cc2ccc(N3CCC(C(=O)N(C)c4sc5c(c4C(=O)O)CC(C)(C)CC5)C3)cc2)NC(=O)OC2COC3OCCC23)cc1 (centres unmarked) [Compound I-863]	2.55 nM
CC(C)CN(CC(O)C(Cc1ccc(OCc2cc(-c3ccc(F)cc3F)ccc2C(N)=O)cc1)NC(=O)OC1COC2(C)OCCC12)S(=O)(=O)c1ccc2ncsc2c1 (centres unmarked) [Compound I-62]	0.82 nM
COc1ccc(S(=O)(=O)N(CC(C)C)CC(O)C(Cc2ccc(OCC3CCCN3c3ccc(C#N)cc3-c3sc4c(c3C(=O)O)CC(C)(C)CC4)cc2)NC(=O)OC2COC3(C)OCCC23)cc1 (centres unmarked) [Compound I-333]	11 nM
COc1ccc(S(=O)(=O)N(CC(C)C)CC(O)C(Cc2ccc(N3CCc4ccc(-c5sc6c(c5C(=O)O)CC(C)(C)CC6)cc4C3)cc2)NC(=O)OC2COC3(C)OCCC23)cc1 (centres unmarked) [Compound I-215]	2.01 nM
COc1ccc(S(=O)(=O)N(CC(C)C)CC(O)C(Cc2ccc(NCc3cncc(C(=O)Nc4sc5c(c4C(=O)O)CC(C)(C)CC5)c3)cc2)NC(=O)OC2COC3(C)OCCC23)cc1 (centres unmarked) [Compound I-443]	1.88 nM
COc1ccc(S(=O)(=O)N(CC(C)C)CC(O)C(Cc2ccc(NCc3ccc(-c4c(C(=O)O)sc5c4CC(C)(C)CC5)cc3)cc2)NC(=O)OC2COC3(C)OCCC23)cc1 (centres unmarked) [Compound I-356]	3.3 nM
COc1ccc(S(=O)(=O)N(CC(C)C)CC(O)C(Cc2ccc(N(C)Cc3ncccc3C(=O)Nc3sc4c(c3C(=O)O)CC(C)(C)CC4)cc2)NC(=O)OC2COC3(C)OCCC23)cc1 (centres unmarked) [Compound I-694]	2.27 nM
COc1ccc(S(=O)(=O)N(CC(C)C)CC(O)C(Cc2ccc(CN(C)Cc3cccc(-c4sc5c(c4C(=O)O)CC(C)(C)CC5)c3)cc2)NC(=O)OC2COC3(C)OCCC23)cc1 (centres unmarked) [Compound I-266]	2.61 nM
COc1ccc(S(=O)(=O)N(CC(C)C)CC(O)C(Cc2ccc(N(C)Cc3ccc(Oc4ccccc4)cc3-c3sc4c(c3C(=O)O)CC(C)(C)CC4)cc2)NC(=O)OC2COC3(C)OCCC23)cc1 (centres unmarked) [Compound I-696]	12.2 nM
CC1(C)CCc2sc(-c3ccc(C(F)(F)F)cc3CNc3ccc(CC(NC(=O)OC4COC5OCCC45)C(O)CN(CC4CCCC4)S(=O)(=O)c4ccc5c(c4)OCO5)cc3)c(C(=O)O)c2C1 (centres unmarked) [Compound I-876]	7.13 nM
COc1ccc(S(=O)(=O)N(CC(C)C)CC(O)C(Cc2ccc(OC3CC(N(C)c4ccccc4-c4sc5c(c4C(=O)O)CC(C)(C)CC5)C3)cc2)NC(=O)OC2COC3(C)OCCC23)cc1 (centres unmarked) [Compound I-382]	7.26 nM
COc1ccc(S(=O)(=O)N(CC(C)C)CC(O)C(Cc2ccc(NCc3cnc(OC)cc3-c3sc4c(c3C(=O)O)CC(C)(C)CC4)cc2)NC(=O)OC2COC3(C)OCCC23)cc1 (centres unmarked) [Compound I-278]	1.83 nM
COc1ccc(S(=O)(=O)N(CC(C)C)CC(O)C(Cc2ccc(NCc3cc(N4CCCCC4=O)ccc3-c3sc4c(c3C(=O)O)CC(C)(C)CC4)cc2)NC(=O)OC2COC3(C)OCCC23)cc1 (centres unmarked) [Compound I-729]	1.64 nM
COc1ccc(S(=O)(=O)N(CC(C)C)CC(O)C(Cc2ccc(NCC3CCCC3c3sc4c(c3C(=O)O)CC(C)(C)CC4)cc2)NC(=O)OC2COC3OCCC23)cc1 (centres unmarked) [Compound I-878]	2.94 nM
COc1ccc(S(=O)(=O)N(CC(C)C)CC(O)C(Cc2ccc(NCc3ccccc3-c3ccc(Nc4sc5c(c4C(=O)O)CC(C)(C)CC5)nc3)cc2)NC(=O)OC2COC3(C)OCCC23)cc1 (centres unmarked) [Compound I-775]	3.64 nM
COc1ccc(S(=O)(=O)N(CC(C)C)CC(O)C(Cc2ccc(N(C)Cc3cccc(C)c3C(=O)Nc3sc4c(c3C(=O)O)CC(C)(C)CC4)cc2)NC(=O)OC2COC3(C)OCCC23)cc1 (centres unmarked) [Compound I-747]	4.35 nM
COc1ccc(S(=O)(=O)N(CC(C)C)CC(O)C(Cc2ccc(N(Cc3ccco3)Cc3ccccc3-c3sc4c(c3C(=O)O)CC(C)(C)CC4)cc2)NC(=O)OC2COC3(C)OCCC23)cc1 (centres unmarked) [Compound I-420]	13.1 nM
COc1ccc(S(=O)(=O)N(CC(C)C)CC(O)C(Cc2ccc(CN(C)C3CCCCC3c3sc4c(c3C(=O)O)CC(C)(C)CC4)cc2)NC(=O)OC2COC3(C)OCCC23)cc1 (centres unmarked) [Compound I-342]	2.06 nM

SMILES	IC50
COc1ccc(S(=O)(=O)N(CC(C)C)CC(O)C(Cc2ccc(N(CCc3ccccc3)Cc3ccccc3-c3sc4c(c3C(=O)O)CC(C)(C)CC4)cc2)NC(=O)OC2COC3(C)OCCC23)cc1 (centres unmarked) [Compound I-421]	14.7 nM
COc1ccc(S(=O)(=O)N(CC(C)C)CC(O)C(Cc2ccc(OCC3CCCN(c4ccc(C#N)cc4-c4sc5c(c4C(=O)O)CC(C)(C)CC5)C3)cc2)NC(=O)OC2COC3(C)OCCC23)cc1 (centres unmarked) [Compound I-328]	12.8 nM
COc1ccc(S(=O)(=O)N(CC(C)C)CC(O)C(Cc2ccc(NCc3cc(C)c(-c4sc5c(c4C(=O)O)CC(C)(C)CC5)c(C)c3)cc2)NC(=O)OC2COC3(C)OCCC23)cc1 (centres unmarked) [Compound I-533]	10.6 nM
COc1ccc(S(=O)(=O)N(CC(C)C)CC(O)C(Cc2ccc(NCc3ccc(Oc4ccc(-c5sc6c(c5C(=O)O)CC(C)(C)CC6)cc4)cc3)cc2)NC(=O)OC2COC3(C)OCCC23)cc1 (centres unmarked) [Compound I-564]	14.2 nM
COc1ccc(S(=O)(=O)N(CC(C)C)CC(O)C(Cc2ccc(N(C)Cc3ccc(OC)cc3C(=O)Nc3sc4c(c3C(=O)O)CC(C)(C)CC4)cc2)NC(=O)OC2COC3(C)OCCC23)cc1 (centres unmarked) [Compound I-683]	5.74 nM
COc1ccc(S(=O)(=O)N(CC(C)C)CC(O)C(Cc2ccc(NCc3ccccc3-c3c(C(=O)O)[nH]c4ccc(OC)cc34)cc2)NC(=O)OC2COC3(C)OCCC23)cc1 (centres unmarked) [Compound I-506]	1.7 nM
COc1ccc(S(=O)(=O)N(CC(C)C)CC(O)C(Cc2ccc(N(C)CCOc3ccccc3-c3sc4c(c3C(=O)O)CC(C)(C)CC4)cc2)NC(=O)OC2COC3(C)OCCC23)cc1 (centres unmarked) [Compound I-647]	2.59 nM
COc1ccc(S(=O)(=O)N(CC(C)C)CC(O)C(Cc2ccc(NCc3ccc(C(F)(F)F)cc3C(=O)Nc3sc4c(c3C(=O)O)CC(C)(C)CC4)cc2)NC(=O)OC2COC3(C)OCCC23)cc1 (centres unmarked) [Compound I-690]	7.7 nM
COc1ccc(S(=O)(=O)N(CC(C)C)CC(O)C(Cc2ccc(N(C)C3CCc4c(-c5sc6c(c5C(=O)O)CC(C)(C)CC6)cccc43)cc2)NC(=O)OC2COC3(C)OCCC23)cc1 (centres unmarked) [Compound I-709]	7.2 nM
COc1ccc(S(=O)(=O)N(CC2CCCC2)CC(O)C(Cc2ccc(OCCn3nc4c(c3C(=O)O)CC(C)(C)CC4)cc2)NC(=O)OC2COC3(C)OCCC23)cc1 (centres unmarked) [Compound I-366]	2.72 nM
COc1ccc(S(=O)(=O)N(CC(C)C)CC(O)C(Cc2ccc(N3CCC(C(=O)Nc4ccccc4-c4sc5c(c4C(=O)O)CC(C)(C)CC5)C3)cc2)NC(=O)OC2COC3(C)OCCC23)cc1 (centres unmarked) [Compound I-672]	2.05 nM
COc1ccc(S(=O)(=O)N(CC(C)C)CC(O)C(Cc2ccc(NCc3ccccc3-c3cc4c(cc3C(=O)O)OCCO4)cc2)NC(=O)OC2COC3(C)OCCC23)cc1 (centres unmarked) [Compound I-496]	1.81 nM
COc1ccc(S(=O)(=O)N(CC(C)C)CC(O)C(Cc2ccc(NCc3ccc(-c4sc5c(c4C(=O)O)CC(C)(C)CC5)c4ccccc34)cc2)NC(=O)OC2COC3(C)OCCC23)cc1 (centres unmarked) [Compound I-322]	10.5 nM
COc1ccc(S(=O)(=O)N(CC(C)C)CC(O)C(Cc2ccc(OCCNC(=O)c3cc(-c4ccc(F)cc4F)ccc3O)cc2)NC(=O)OC2COC3(C)OCCC23)cc1 (centres unmarked) [Compound I-172]	1.02 nM
COc1ccc(S(=O)(=O)N(CC(C)C)CC(O)C(Cc2ccc(OCCN(C)c3ccc(C#N)cc3-c3sc4c(c3C(=O)O)CC(C)(C)CC4)cc2)NC(=O)OC2COC3(C)OCCC23)cc1 (centres unmarked) [Compound I-257]	4.98 nM
COc1ccc(S(=O)(=O)N(CC(C)C)CC(O)C(Cc2ccc(NCc3ccc(Oc4ccc(-c5sc6c(c5C(=O)O)CC(C)(C)CC6)c(C)c4)cc3)cc2)NC(=O)OC2COC3(C)OCCC23)cc1 (centres unmarked) [Compound I-571]	22.2 nM
COc1ccc(S(=O)(=O)N(CC(C)C)CC(O)C(Cc2ccc(NCc3ccccc3-c3nc4n(c3C(=O)O)CCCC4)cc2)NC(=O)OC2COC3(C)OCCC23)cc1 (centres unmarked) [Compound I-368]	2.11 nM
COc1ccc(S(=O)(=O)N(CC(C)C)CC(O)C(Cc2ccc(NC3CCc4c(-c5sc6c(c5C(=O)O)CC(C)(C)CC6)cccc43)cc2)NC(=O)OC2COC3(C)OCCC23)cc1 (centres unmarked) [Compound I-697]	2.9 nM
COc1ccc(S(=O)(=O)N(CC(C)C)CC(O)C(Cc2ccc(OCc3ccccc3-c3sc(Cl)c(CC(C)C)c3C(=O)O)cc2)NC(=O)OC2COC3OCCC23)cc1 (centres unmarked) [Compound I-850]	1.03 nM
COc1ccc(S(=O)(=O)N(CC(C)C)CC(O)C(Cc2ccc(NCc3cc(Oc4cccnc4)ccc3-c3sc4c(c3C(=O)O)CC(C)(C)CC4)cc2)NC(=O)OC2COC3(C)OCCC23)cc1 (centres unmarked) [Compound I-688]	2.59 nM
COc1ccc(S(=O)(=O)N(CC(C)C)CC(O)C(Cc2ccc(NCc3cccc(-c4sc5c(c4C(=O)O)CC(C)(C)CC5)c3OCc3ccccc3)cc2)NC(=O)OC2COC3(C)OCCC23)cc1 (centres unmarked) [Compound I-558]	4.99 nM
COc1ccc(S(=O)(=O)N(CC(C)C)CC(O)C(Cc2ccc(NCc3cc(C(F)(F)F)ccc3C(=O)Nc3sc4c(c3C(=O)O)CC(C)(C)CC4)cc2)NC(=O)OC2COC3(C)OCCC23)cc1 (centres unmarked) [Compound I-691]	6.44 nM
